{
  "source": "patent US12396987B2",
  "about": "“Pharmaceutical composition with excellent storage stability” (ISHIHARA SANGYO KAISHA, LTD., priority 2018, dated 2025)",
  "key": {"[1]": {"experiment": "Forced decomposition test of compound 1 (heat, acid, base, oxidation, light; HPLC-PDA)", "assay_type": "physicochemical", "description": "A forced decomposition test of the compound 1 was performed under stress conditions of heat, acid, base, oxidation and light. A compound 1-containing solution was stored under the conditions shown in Table 4 below, and then the concentrations of the compound 1 and the decomposition products in the solution were measured using a high performance liquid chromatography-photodiode array detector (HPLC-PDA system). An incubator was used for heating, and a light resistance tester was used for irradiation with pseudo-sunlight in a photodecomposition test. The content of the compound 1 in the compound 1-containing solution produced was measured by the HPLC-PDA system, and the value thereof was regarded as the initial content.\nThe content of D1 and D3 in the solution was represented by the proportion (% by area) of the peak area of each compound to the total peak area of HPLC analysis of the composition obtained after the decomposition test. Furthermore, the residual rate (% by mass) of the compound 1 was calculated by dividing the content after storage by the initial content using the absolute calibration method.\n(§1) Measurement of the residual rate of the compound 1 and the content of the decomposition products in the following Examples 3 to 9 was performed under the following conditions: • Analyzer: HPLC-PDA system: CBM-20Avp system controller, SIC-20ADvp autosampler, LC-20ADvp feed pump, DGU-20A degasser, CTO-20Avp column oven, SPD-M10Avp photodiode array detector, manufactured by Shimadzu Corporation • Column: Kinetex® Biphenyl […] (50×4.6 mm), manufactured by Shimadzu Corporation\nA compound 1 was metered, and Milli-Q water was added so that the compound 1 could be solubilized, thus obtaining an aqueous solution of the compound 1 (250 μM) so that the concentration of the compound 1 became 250 μM.\nThe aqueous solution of the compound 1 thus obtained (250 μM) was heated at 60° C., followed by measurement using the HPLC-PDA system.\nThe aqueous solution of the compound 1 obtained in Example 3 (250 μM) was heated under acid (0.1N HCl) conditions, followed by measurement of the decomposition products using the HPLC-PDA system. […] Addition of an acid decreased the production of D1 and promoted the production of D3.\nThe aqueous solution of the compound 1 obtained in Example 3 (250 μM) was heated under base (0.1N NaOH) conditions, followed by measurement of the decomposition products using the HPLC-PDA system. […] Addition of a base promoted the production of D1. Other peaks (0.11% by area) were observed.\nThe aqueous solution of the compound 1 obtained in Example 3 (250 μM) was stored under conditions of ordinary temperature and hydrogen peroxide (3 v/v %), followed by measurement of the decomposition products using the HPLC-PDA system.\nThe aqueous solution of the compound 1 obtained in Example 3 (250 μM) was irradiated with pseudo-sunlight (250 W/m^2, 2 hours), followed by measurement of the decomposition products using the HPLC-PDA system. […] Therefore, it was confirmed that the aqueous solution of the compound 1 was photostable."}, "[2]": {"experiment": "Pharmacokinetic evaluation of hydrogelated liquid composition, subcutaneous administration to rats", "assay_type": "in vivo, SD male rats", "details": "5 mg/kg", "description": "A compound 1 (3.5 mg), Kolliphor (registered trademark) P188 (200 mg), Kolliphor (registered trademark) P407 (150 mg) and purified water (1.0 mL) were mixed using a vortex mixer to obtain a liquid composition. Then, the above liquid composition was stored at 4° C. overnight to obtain a hydrogel.\nTo evaluate the sustained-release ability of the hydrogelated liquid composition prepared in the above Example 11(a), the drug concentration in blood was measured over time after subcutaneous administration of the hydrogel or a compound 1 bulk powder to rats. Specifically, the hydrogel or the compound 1 bulk powder, at a dose of 5 mg/kg as an amount of the compound 1, was singly subcutaneously administered to SD male rats. After subcutaneous administration, blood was collected over time from the tail vein, and the blood was transferred into a micro test tube treated with heparin, and immediately cooled in ice. After cooling in ice, the blood was immediately centrifuged at 4° C. and 10,000 g for 10 minutes.\nIn Table 10, pharmacokinetic parameter was expressed as mean±standard error (n=3 to 6)."}, "[3]": {"tested_on": "phospholipase A2", "details": "known from Patent Document 1; cited from earlier work"}, "[4]": {"experiment": "Inhibition of decomposition of compound 1-containing liquid composition with antioxidant added (60° C., 48 hours)", "assay_type": "physicochemical", "details": "compound 1 250 μM, Tween 80 1.0 v/v %, antioxidant 250 μM, 60° C. for 48 hours (FIG. 6)", "description": "In this test, an additive (antioxidant) that traps reactive oxygen species (ROS) was added to investigate the usefulness in the aqueous solution of the compound 1 for inhibition of decomposition under thermal conditions. A compound 1, Tween 80 and an antioxidant was metered, and Milli-Q water was added so that the concentration of the compound 1 and Tween 80 became 250 μM and 1.0 v/v %, respectively. Subsequently, four antioxidants were added so that each of the concentration thereof became 250 μM to obtain a compound 1-containing liquid composition with an antioxidant added. The content of D1 after the composition was heated at 60° C. for 48 hours was evaluated."}, "[5]": {"experiment": "Solution stability of compound 1-containing liquid composition with VC added (heating to 60° C.)", "assay_type": "physicochemical", "details": "VC 250, 500 or 2,500 μM, compound 1 250 μM, Tween 80 1.0 v/v %", "description": "as §1\nEffects of the amount of VC added on the solution stability of the compound 1 were investigated. Preparation was performed in the same manner as for the compound 1-containing liquid composition in Example 8 except that the concentration of VC was 250, 500 or 2,500 μM. The decomposition of the compound 1 and the production of D1 at the time of addition were evaluated (mean±standard error, n=3). After heating to 60° C., and the residual rate of the compound 1 and the content of D1 were evaluated over time, and the results are shown in FIG. 7. The residual rate (% by mass) of the compound 1 in the solution and the content (% by area) of D1 were calculated by the same calculation method as in Examples 3 to 8."}, "[6]": {"details": "clinical use as additive; cited from earlier work"}, "[7]": {"details": "Heat: 60° C., 48 h, —: Undetected"}, "[8]": {"details": "Oxidation: 3.0% H2O2, room temperature, 48 h"}},
  "note": "Entries after “also recorded” stand apart in the source; their conditions may differ. Counter-ions that a name gives are not always drawn.",
  "data": [
    {"compound": "CCS(=O)(=O)Nc1ncc(C(F)(F)F)cc1NC(=O)C1CCCCC1", "note": "[Compound 1, N-(2-ethylsulfonylamino-5-trifluoromethyl-3-pyridyl)cyclohexanecarboxamide-monosodium salt-monohydrate]", "values": [
      {"measurement": "Content of D3 after the forced decomposition test", "setting": "[1]; Acid: 0.1N HCl, 60° C., 48 h", "value": 16.18, "unit": "% by area"},
      {"measurement": "Other peaks (other than D1 and D3), maximum", "setting": "[1]; Acid: 0.1N HCl, 60° C., 48 h", "value": "≤ 1.36", "unit": "% by area"},
      {"measurement": "Residual rate of the compound 1 after the forced decomposition test", "setting": "[1]; Acid: 0.1N HCl, 60° C., 48 h", "value": 77.1, "unit": "% by mass"},
      {"measurement": "Content of D1 after the forced decomposition test", "setting": "[1]; Acid: 0.1N HCl, 60° C., 48 h, —: Undetected", "value": "below the detection limit"},
      {"measurement": "Content of D1 after the forced decomposition test", "setting": "[1]; Base: 0.1N NaOH, 60° C., 48 h", "value": 17.62, "unit": "% by area"},
      {"measurement": "Content of D3 after the forced decomposition test", "setting": "[1]; Base: 0.1N NaOH, 60° C., 48 h", "value": 0.50, "unit": "% by area"},
      {"measurement": "Other peaks (other than D1 and D3)", "setting": "[1]; Base: 0.1N NaOH, 60° C., 48 h", "value": 0.11, "unit": "% by area"},
      {"measurement": "Residual rate of the compound 1 after the forced decomposition test", "setting": "[1]; Base: 0.1N NaOH, 60° C., 48 h", "value": 77.3, "unit": "% by mass"},
      {"measurement": "Residual rate of the compound 1 after the forced decomposition test", "setting": "[1]; Heat: 250 μM aqueous solution, 60° C., 48 h", "value": 88.7, "unit": "% by mass"},
      {"measurement": "Other peaks (other than D1 and D3)", "setting": "[1]; Heat: 60° C., 48 h", "value": "No other peaks were detected"},
      {"measurement": "Content of D1 after the forced decomposition test", "setting": "[1]; [7]", "value": 8.08, "unit": "% by area"},
      {"measurement": "Content of D3 after the forced decomposition test", "setting": "[1]; [7]", "value": "below the detection limit"},
      {"measurement": "Residual rate of the compound 1 after the forced decomposition test", "setting": "[1]; Light: pseudo-sunlight 250 W/m^2, room temperature, 2 h", "value": 97.4, "unit": "% by mass"},
      {"measurement": "Content of D1 after the forced decomposition test", "setting": "[1]; [8]", "value": 0.30, "unit": "% by area"},
      {"measurement": "Residual rate of the compound 1 after the forced decomposition test", "setting": "[1]; [8]", "value": 75.9, "unit": "% by mass"},
      {"measurement": "Content of D3 after the forced decomposition test", "setting": "[1]; Oxidation: 3.0% H2O2, room temperature, 48 h, —: Undetected", "value": "below the detection limit"},
      {"measurement": "Peaks other than D1 and D3, maximum", "setting": "[1]; Oxidation: hydrogen peroxide 3 v/v %, ordinary temperature", "value": "≤ 1.79", "unit": "% by area"},
      {"measurement": "Photostability of the aqueous solution (decomposition products after irradiation)", "setting": "[1]; pseudo-sunlight 250 W/m^2, 2 hours", "value": "No decomposition product was detected; also recorded: photostable"},
      {"measurement": "Concentration in plasma at 12 hours after administration", "setting": "[2]", "value": "below the detection limit"}
    ]},
    {"compound": "CCS(=O)(=O)Nc1ncc(C(F)(F)F)cc1NC(=O)C1CCCCC1", "note": "[N-(2-ethylsulfonylamino-5-trifluoromethyl-3-pyridyl)cyclohexanecarboxamide]", "values": [
      {"measurement": "Inhibitory effect on phospholipase A2", "setting": "[3]", "value": "has an inhibitory effect on phospholipase A2"}
    ]},
    {"compound": "O=C1O[C@H]([C@@H](O)CO)C(O)=C1O", "note": "[VC, L-ascorbic acid]", "values": [
      {"measurement": "Inhibition of decomposition of compound 1 / production of D1 by added antioxidant", "setting": "[4]", "value": "remarkably inhibited the production of D1"},
      {"measurement": "Residual rate of the compound 1 over time with VC added", "setting": "[5]; 60° C. (FIG. 7A)", "value": "increased depending on the concentration of VC added"},
      {"measurement": "Content of D1 over time with VC added", "setting": "[5]; 60° C. (FIG. 7B)", "value": "decreased depending on the concentration of VC added"}
    ]},
    {"compound": "N[C@@H](CS)C(=O)O", "note": "[cysteine, L-Cysteine]", "values": [
      {"measurement": "Inhibition of decomposition of compound 1 / production of D1 by added antioxidant", "setting": "[4]", "value": "remarkably inhibited the production of D1"},
      {"measurement": "Maximum dose during intravenous injection", "setting": "[6]", "value": 8, "unit": "mg"}
    ]}
  ]
}
